Experimental data as given in US20120195911A1, “Method of treatment of cancer patients” (priority 2011, published 2012).

Key:
[1] = system: adenocarcinomas with various localizations; test: Comparative study, all cancer patients of the experimental group together; type: in vivo, human; conditions: for long-term remission of the illness: fewer than 3 courses of seven days
Method: All the patients belonged to the second clinical group with stage 3 illness. In the capacity of a control group (Control), the following were used: 10 cervical cancer patients, 12 stomach cancer patients, and 10 mammary gland cancer patients from clinical group 2 with stage 3 illnesses. In the control group the patients were treated without the use of Valacyclovir and Acyclovir. As may be seen in the table, the remission periods due to the use of Valacyclovir (Acyclovir) before standard methods of treatment or in combination with chemotherapy doubled for mammary gland cancer and quintupled for stomach cancer. In the majority of the patients (more than 72%), metastasis was not seen for the entire period of observation (3 years). […] The use of the antiviral drug is not useful for a longer period, as the remission period begins for the patient and the drug is ineffective.

[2] = system: EBV-associated nasopharyngeal carcinomas; conditions: nasopharyngeal carcinomas in athymus mice; cited from earlier work
[3] = system: neuroblastoma cells infected by HCMV; conditions: long-term cultured HCMV-infected neuroblastoma cells resistant to cysplatin and etoposide; virus reproduction blocked; cited from earlier work
cytomegalovirus (CMV) = test: CMV antigens in patient's lymphocytes (fluorescing antibody method / indirect immunofluorescence reaction); type: in vivo, human
Method: (§1) […] Before treatment with Acyclovir, the antigen to cytomegalovirus (CMV) was found in 85% of the patient's lymphocytes through the fluorescing antibody method (FAM) and therapy was administered with the use of Valacyclovir. 1 g of medication was given 3 times a day for 7 days in a row in three courses in intervals of seven days each. Then the patient underwent a radical mastectomy. Postoperative chemotherapy was not used. […] CMV antigens were not found in the lymphocytes.
(§2) […] CMV antigens were found using the FAM in 90% of the lymphocytes before treatment with Valacyclovir. The patient then underwent Valacyclovir therapy. 2 g of medication was administered 4 times a day for 7 days in a row in three courses in intervals of seven days each. Then a subtotal resection was performed on the patient's stomach. Postoperative chemotherapy was not used. […] Laboratory study of the patient's lymphocytes every year found CMV antigens in 10-15% of the cells. At the end of the first and second year, the patient received another course of Valacyclovir.
(§3) […] CMV was found with the FEM in 80% of lymphocytes before treatment with Valacyclovir. The patient then underwent Valacyclovir therapy. 2 g of medication was administered 4 times a day for 7 days in a row in three courses in intervals of seven days each. Then the patient underwent a standard schedule of radiological treatment. Chemotherapy was not used. […] Laboratory study of the patient's lymphocytes every year found CMV antigens, but only in 20-30% of the cells. The patient underwent two more courses of treatment with Valacyclovir according to the schedule above once per year.
(§4) […] Valacyclovir was administered as treatment. CMV antigens were found in 95% of the patient's lymphocytes before treatment with Valacyclovir. 2 g of medication was administered orally 4 times a day for 7 days in a row in three courses in intervals of seven days each in parallel with CVPM chemotherapy. Other treatment methods were not used. […] Laboratory study of the patient's lymphocytes every year found CMV antigens in 10-15% of the cells. The patient underwent two more courses of treatment with Valacyclovir in combination with chemotherapy once per year.
(§5) EBV antigens were found 80% of the lymphocytes and CMV was found in 90% of the lymphocytes using the FAM in before treatment with Valacyclovir. The patient then underwent combination therapy with antiviral drugs: immunoglobulin to treat the EBV at a dosage of 13 ml of a 10% solution immediately (7 ml per injection) intravenously once a week three times; immunoglobulin to treat the CMV at a dosage of 13 ml of a 10% solution immediately (7 ml per injection) intramuscularly once a week three times; two 1 g tablets of Valacyclovir 3 times per day in 3 courses of 7 days each; Laferobion 3 million IU once per day daily for seven days in a row. Then a subtotal resection was performed on the patient's stomach. Postoperative chemotherapy was not used. […] Laboratory study of the patient's lymphocytes every year found CMV and EBV antigens in 10-15% of the cells.

EBV = EBV antigens in patient's lymphocytes (fluorescing antibody method); type: in vivo, human; conditions: Patient (stomach cancer), combination with immunoglobulins and Laferobion; 80% before treatment
Method: as §5

T3N1M0 stomach cancer = test: Case reports: preoperative Valacyclovir in stomach cancer; type: in vivo, human; conditions: then subtotal resection
Method: as §2
EBV antigens were found 80% of the lymphocytes and CMV was found in 90% of the lymphocytes using the FAM in before treatment with Valacyclovir. The patient then underwent combination therapy with antiviral drugs: immunoglobulin to treat the EBV at a dosage of 13 ml of a 10% solution immediately (7 ml per injection) intravenously once a week three times; immunoglobulin to treat the CMV at a dosage of 13 ml of a 10% solution immediately (7 ml per injection) intramuscularly once a week three times; two 1 g tablets of Valacyclovir 3 times per day in 3 courses of 7 days each; Laferobion 3 million IU once per day daily for seven days in a row. Then a subtotal resection was performed on the patient's stomach. Postoperative chemotherapy was not used. […]

T4N1M0 prostate cancer = test: Case report: Valacyclovir with chemotherapy in prostate cancer; type: in vivo, human; conditions: Patient D., 2 g orally 4 times a day, 7 days, three courses, in parallel with CVPM chemotherapy; three-year period
Method: as §4

[4] = system: T2N1M0 mammary gland cancer; test: Case report: preoperational Valacyclovir in mammary gland cancer; type: in vivo, human; conditions: Patient L., 1 g 3 times a day, 7 days, three courses, then radical mastectomy; three-year period
Method: as §1

Stomach Cancer = test: Comparative study of treatment with Valacyclovir before standard treatment, stomach cancer patients; type: in vivo, human; conditions: Valacyclovir (Acyclovir) before standard treatment or with chemotherapy
Method: (§6) All the patients belonged to the second clinical group with stage 3 illness. In the capacity of a control group (Control), the following were used: 10 cervical cancer patients, 12 stomach cancer patients, and 10 mammary gland cancer patients from clinical group 2 with stage 3 illnesses. In the control group the patients were treated without the use of Valacyclovir and Acyclovir. As may be seen in the table, the remission periods due to the use of Valacyclovir (Acyclovir) before standard methods of treatment or in combination with chemotherapy doubled for mammary gland cancer and quintupled for stomach cancer. In the majority of the patients (more than 72%), metastasis was not seen for the entire period of observation (3 years).

Mammary Gland Cancer = test: Comparative study of treatment with Valacyclovir before standard treatment, mammary gland cancer patients; type: in vivo, human; conditions: Valacyclovir (Acyclovir) before standard treatment or with chemotherapy
Method: as §6

T4N1M0 cervical cancer = test: Case report: Valacyclovir before radiation therapy for cervical cancer; type: in vivo, human; conditions: Patient S.
Method: as §3

Compound: Nc1nc2c(ncn2COCCO)c(=O)[nH]1 [Acyclovir]
- long-term remission of the illness ([1]; less than 0.5 g 2 times a day in injected form): does not provide long-term remission

Compound: Nc1ccn(C[C@@H](CO)OCP(=O)(O)O)c(=O)n1 [Cidofovir, (S)-1-(3-hydroxy-2-phpsphonyl-methoxypropyl) cytosine]
- apoptosis in EBV-transformed epithelial cells [2]: causes a quick induction of apoptosis

Compound: Nc1nc(O)c2ncn(COC(CO)CO)c2n1 [Ganciclovir]
- sensitivity to the action of antitumor drugs [3]: fully restored

Compound: CC(C)[C@H](N)C(=O)OCCOCn1cnc2c(=O)[nH]c(N)nc21 [Valacyclovir]
- patients in whom metastasis was not seen for the entire period of observation ([1]; experimental group, observation 3 years): more than 72%
- long-term remission of the illness ([1]; less than 1 g 3 times a day perorally): does not provide long-term remission
- CMV antigens in lymphocytes after treatment (cytomegalovirus (CMV); Patient (stomach cancer), combination with immunoglobulins and Laferobion, 90% before treatment): 10-15%
- CMV antigens in lymphocytes after treatment (cytomegalovirus (CMV); Patient B. (stomach cancer), yearly study, 90% of lymphocytes before treatment): 10-15%
- CMV antigens in lymphocytes after treatment (cytomegalovirus (CMV); Patient D. (prostate cancer), yearly study, 95% of lymphocytes before treatment): 10-15%
- CMV antigens in lymphocytes after treatment (cytomegalovirus (CMV); Patient L., yearly checkup by IIR, 85% of lymphocytes before treatment): not found
- CMV antigens in lymphocytes after treatment (cytomegalovirus (CMV); Patient S. (cervical cancer), yearly study, 80% of lymphocytes before treatment): 20-30%
- EBV antigens in lymphocytes after treatment (EBV): 10-15%
- relapses (T3N1M0 stomach cancer; Patient B., 2 g 4 times a day, 7 days, three courses, three-year period): No relapses were seen
- relapses (T3N1M0 stomach cancer; Patient, Valacyclovir combined with EBV and CMV immunoglobulins and Laferobion, four-year period): No relapses were seen
- relapses (T4N1M0 prostate cancer): No relapses were seen
- relapses [4]: No relapses were seen
- change of remission period versus control (Stomach Cancer): quintupled
- change of remission period versus control (Mammary Gland Cancer): doubled
- relapses (T4N1M0 cervical cancer; 2 g 4 times a day, 7 days, three courses, then radiological treatment, three-year period): No relapses were seen
- metastasis (T4N1M0 cervical cancer; during the observation time): no metastasis
